# Results published in US20260176285A1, “SALT OF DIOXANE QUINOLINE COMPOUND, CRYSTAL FORM THEREOF, PREPARATION METHODS THEREFOR AND USES THEREOF” (Beijing Scitech-MQ Pharmaceuticals Limited, priority 2022, published 2026).
# Key:
# Assay type in all cases: physicochemical
# [1] = Solid-state stability evaluation (XRPD, HPLC); settings: listed as Di-p-toluenesulfonate salt crystal form A-IV
# Protocol: The following 6 test samples were placed under 25° C./60% RH and 40° C./75% RH conditions for 1 week, and then the physical and chemical stability of the samples was tested by XRPD and HPLC.
# At the same time, after the p-toluenesulfonate salt crystal form A-II and crystal form B-III solids were placed at 80° C. for 24 hours, the physical and chemical stability of the samples were tested by XRPD and HPLC.
# [2] = Hygroscopicity by dynamic moisture sorption (DVS); settings: DVS, listed as Di-p-toluenesulfonate salt crystal form A-IV
# Protocol: Dynamic moisture sorption (DVS): The curves were collected on a DVS Intrinsic of SMS (Surface Measurement Systems). At 25° C., the humidity range was 0% RH-95% RH, the step was 10% (the last step was 5%), and the dm/dt was 0.002%/min.
# The hygroscopicity of the free compound of formula (I), mucate salt crystal form A-I, p-toluenesulfonate salt crystal forms A-II and B-III, di-p-toluenesulfonate salt crystal form A-IV and phosphate salt crystal form A-V was evaluated by dynamic moisture sorption instrument (DVS). Starting from 0% relative humidity (0% RH), the test collected the mass change percentage of the samples under constant temperature of 25° C. with humidity changes (0% RH-95% RH-0% RH).
# [3] = Dynamic solubility in water, SGF, FaSSIF and FeSSIF; set-up: S (dynamic solubility): unit not given here; settings: listed as Di-p-toluenesulfonate salt crystal form A-IV; for S (dynamic solubility): 37° C., feed 10 mg/mL
# Protocol: Biological solvent Preparation • 1. […] 67.5 μL of concentrated hydrochloric acid (12 M) was added and the mixture was adjusted to a pH value of 1.8 with 1 M hydrochloric acid or 1 M NaOH solution. Purified water was added to make up to volume. • 2. Preparation of Fasted State Simulated Intestinal Fluid (FaSSIF): 0.17 g of anhydrous NaH2PO4, 0.021 g of NaOH, and 0.31 g of NaCl were weighed into a 50-mL volumetric flask. About 48 mL of purified water was added to dissolve the mixture completely, and the solution was adjusted to a pH value of 6.5 with 1 M hydrochloric acid or 1 M NaOH solution. Purified water was added to make up to volume. 0.11 g of SIF powder was added and dissolved completely. • 3. Preparation of Fed State Simulated Intestinal Fluid (FeSSIF): 0.41 mL of glacial acetic acid, 0.20 g of NaOH and 0.59 g of NaCl were weighed into a 50-mL volumetric flask. About 48 mL of purified water was added to dissolve the mixture completely, and the solution was adjusted to a pH value of 5.0 with 1 M hydrochloric acid or 1 M NaOH solution. Purified water was added to make up to volume. 0.56 g of SIF powder was added and dissolved completely.
# The dynamic solubility of the free state, the mucate salt crystal form A-I, the p-toluenesulfonate salt crystal form A-II, the di-p-toluenesulfonate salt crystal form A-IV and the phosphate salt crystal form A-V of the compound of formula (I) in water and three biological solvents was evaluated.
# The samples at each time point were centrifuged and filtered (0.45 μm PTFE filter head), and the HPLC concentration and pH value of the filtrate were determined.
compound,measurement,setting,value
"O=C(Nc1ccc(F)cc1)C1(C(=O)Nc2ccc(Oc3ccnc4cc(OCCCN5CCOCC5)c5c(c34)OCCO5)c(F)c2)CC1 [Example 4, N-(3-fluoro-4-((5-(3-morpholinopropoxy)-2,3-dihydro-[1,4]dioxano[2,3-f]quinolin-10-yl)oxy)phenyl)-N-(4-fluorophenyl)cyclopropane-1,1-dicarboxamide]",Purity,"[1]; 25° C./60% RH, 1 week",99.19 area %
same,Purity/initial purity,"[1]; 25° C./60% RH, 1 week",100.0%
same,Purity,"[1]; 40° C./75% RH, 1 week",99.25 area %
same,Purity/initial purity,"[1]; 40° C./75% RH, 1 week",100.1%
same,Purity,[1]; Starting,99.18 area %
same,Moisture adsorption (25° C./80% RH),[2]; 25° C./80% RH,3.70%
same,Hygroscopicity,[2]; 25° C.,Hygroscopic
same,S (dynamic solubility),"[3]; FaSSIF, 1 hour",0.035
same,pH of the filtrate,"[3]; FaSSIF, 1 hour",5.6
same,S (dynamic solubility),"[3]; FaSSIF, 2 hours",0.080
same,pH of the filtrate,"[3]; FaSSIF, 2 hours",5.2
same,S (dynamic solubility),"[3]; FaSSIF, 4 hours",0.16
same,pH of the filtrate,"[3]; FaSSIF, 4 hours",5.0
same,S (dynamic solubility),"[3]; FaSSIF, 24 hours",0.20
same,pH of the filtrate,"[3]; FaSSIF, 24 hours",5.0
same,S (dynamic solubility),"[3]; FeSSIF, 1 hour",1.6
same,pH of the filtrate,"[3]; FeSSIF, 1 hour",4.9
same,S (dynamic solubility),"[3]; FeSSIF, 2 hours",1.8
same,pH of the filtrate,"[3]; FeSSIF, 2 hours",4.8
same,S (dynamic solubility),"[3]; FeSSIF, 4 hours",1.4
same,pH of the filtrate,"[3]; FeSSIF, 4 hours",4.8
same,S (dynamic solubility),"[3]; FeSSIF, 24 hours",1.0
same,pH of the filtrate,"[3]; FeSSIF, 24 hours",4.9
same,S (dynamic solubility),"[3]; H2O, 1 hour",2.9
same,pH of the filtrate,"[3]; H2O, 1 hour",3.7
same,S (dynamic solubility),"[3]; H2O, 2 hours",2.9
same,pH of the filtrate,"[3]; H2O, 2 hours",3.9
same,S (dynamic solubility),"[3]; H2O, 4 hours",2.8
same,pH of the filtrate,"[3]; H2O, 4 hours",3.8
same,S (dynamic solubility),"[3]; H2O, 24 hours",2.7
same,pH of the filtrate,"[3]; H2O, 24 hours",3.8
same,S (dynamic solubility),"[3]; SGF, 1 hour",4.5
same,pH of the filtrate,"[3]; SGF, 1 hour",1.9
same,S (dynamic solubility),"[3]; SGF, 2 hours",4.6
same,pH of the filtrate,"[3]; SGF, 2 hours",1.9
same,S (dynamic solubility),"[3]; SGF, 4 hours",4.3
same,pH of the filtrate,"[3]; SGF, 4 hours",1.9
same,S (dynamic solubility),"[3]; SGF, 24 hours",4.2
same,pH of the filtrate,"[3]; SGF, 24 hours",1.9
